# From patent US8012998B2, “Pyrrolidine aryl-ether as NK-3 receptor antagonists” (Hoffmann—LA Roche Inc., priority 2007, dated 2011)
# Target: T1, human NK3 receptor (Homo sapiens, UniProt P29371)
# T1 construct: expressed in transfected cells; host or cells: HEK293 cells (transient expression), membrane preparation
# T1 sequence (P29371 1-465): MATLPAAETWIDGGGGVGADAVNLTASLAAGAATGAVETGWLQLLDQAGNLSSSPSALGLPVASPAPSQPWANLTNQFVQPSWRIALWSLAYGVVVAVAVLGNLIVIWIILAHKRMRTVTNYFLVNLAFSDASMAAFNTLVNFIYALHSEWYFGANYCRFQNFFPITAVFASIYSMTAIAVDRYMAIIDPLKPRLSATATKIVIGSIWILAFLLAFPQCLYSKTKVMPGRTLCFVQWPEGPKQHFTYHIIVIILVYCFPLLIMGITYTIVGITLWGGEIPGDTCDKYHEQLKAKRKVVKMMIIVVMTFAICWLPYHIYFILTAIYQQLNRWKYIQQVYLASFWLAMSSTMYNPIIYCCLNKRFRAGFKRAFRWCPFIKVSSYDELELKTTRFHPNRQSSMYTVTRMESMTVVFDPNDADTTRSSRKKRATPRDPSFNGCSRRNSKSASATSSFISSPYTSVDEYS
# Assay: [3H]SR142801 competition binding assay (hNK3 receptor binding)
# Conditions: [3H]SR142801 radioligand; membranes from HEK293 cells transiently expressing recombinant human NK3 receptor; Ki by Cheng-Prussoff; read-out: KiNK3 h
# Method in brief: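 Competition binding with [3H]SR142801 on membranes of HEK293 cells transiently expressing human NK3, 5 μg protein/well, in Tris-HCl/MnCl2/phosphoramidon/BSA buffer pH 7.4. Nonspecific binding defined with 10 μM SB222200; filtration then scintillation counting. IC50 from Hill fit was converted to Ki by Cheng-Prusoff; duplicate, mean ± SEM.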
row,Ki [nM],Compound
1,28.9,"C[C@H](Oc1ccc(C#N)cn1)[C@H]1CN(C(=O)c2ccc3[nH]cnc3c2)C[C@@H]1c1ccc(Cl)c(Cl)c1 (racemic) [Example 69, 6-{(SR)-1-[(3RS,4SR)-1-(1H-Benzoimidazole-5-carbonyl)-4-(3,4-dichloro-phenyl)-pyrrolidin-3-yl]-ethoxy}-nicotinonitrile]"
2,52.4,"Cc1nccc(C(=O)N2C[C@H]([C@H](C)Oc3ccc(C#N)cn3)[C@@H](c3ccc(Cl)c(Cl)c3)C2)n1 (racemic) [Example 95, 6-{(SR)l-1[-(3RS,4SR)-4-(3,4-Dichloro-phenyl)-1-(2-methyl-pyrimidine-4-carbonyl)-pyrrolidin-3-yl]-ethoxy}-nicotinonitrile]"
3,6.8,"Cc1cncc(C(=O)N2C[C@H]([C@H](C)Oc3ccc(C#N)cn3)[C@@H](c3ccc(Cl)c(Cl)c3)C2)c1 (racemic) [Example 73, 6-{(SR)-1-[(3RS,4SR)-4-(3,4-Dichloro-phenyl)-1-(5-methyl-pyridine-3-carbonyl)-pyrrolidin-3-yl]-ethoxy}-nicotinonitrile]"
4,9.2,"Cc1ccc(C(=O)N2C[C@@H]([C@@H](C)Oc3ccc(Cl)cn3)[C@H](c3ccc(Cl)c(Cl)c3)C2)cn1 (racemic) [Example 16, [(3SR,4RS)-3-[(RS)-1-(5-Chloro-pyridin-2-yloxy)-ethyl]-4-(3,4-dichloro-phenyl)-pyrrolidin-1-yl]-(6-methyl-pyridin-3-yl)-methanone]"
5,3.8,"C[C@H](Oc1ccc(C#N)cn1)[C@H]1CN(C(=O)c2ccc(S(C)(=O)=O)nc2)C[C@@H]1c1ccc(Cl)c(Cl)c1 (racemic) [Example 66, 6-{(SR)-1-[(3RS,4SR)-4-(3,4-Dichloro-phenyl)-1-(6-methanesulfonyl-pyridine-3-carbonyl)-pyrrolidin-3-yl]-ethoxy}-nicotinonitrile]"
6,30.9,"Cc1cc(C(=O)N2C[C@H]([C@H](C)Oc3ccc(C#N)cn3)[C@@H](c3ccc(F)c(F)c3)C2)cnn1 [Example 106, 6-{(S)-1-[(3R,4S)-4-(3,4-Difluoro-phenyl)-1-(6-methyl-pyridazine-4-carbonyl)-pyrrolidin-3-yl]-ethoxy}-nicotinonitrile]"
7,9.3,"C[C@@H](Oc1ccc(Cl)cn1)[C@@H]1CN(C(=O)c2ccc(CN(C)C)nc2)C[C@H]1c1ccc(Cl)c(Cl)c1 (racemic) [Example 39, [(3SR,4RS)-3-[(RS)-1-(5-Chloro-pyridin-2-yloxy)-ethyl]-4-(3,4-dichloro-phenyl)-pyrrolidin-1-yl]-(6-dimethylaminomethyl-pyridin-3-yl)-methanone]"
8,42.6,"CSc1ncc(C(=O)N2C[C@@H]([C@@H](C)Oc3ccc(Cl)cn3)[C@H](c3ccc(Cl)c(Cl)c3)C2)cn1 (racemic) [Example 48, [(3SR,4RS)-3-[(RS)-1-(5-Chloro-pyridin-2-yloxy)-ethyl]-4-(3,4-dichloro-phenyl)-pyrrolidin-1-yl]-(2-methylsulfanyl-pyrimidin-5-yl)-methanone]"
9,27.8,"C[C@@H](Oc1ccc(Cl)cn1)[C@@H]1CN(C(=O)c2ccc(F)nc2)C[C@H]1c1ccc(Cl)c(Cl)c1 (racemic) [Example 14, [(3SR,4RS)-3-[(RS)-1-(5-Chloro-pyridin-2-yloxy)-ethyl]-4-(3,4-dichloro-phenyl)-pyrrolidin-1-yl]-(6-fluoro-pyridin-3-yl)-methanone]"
10,18.4,"Cc1ncc(C(=O)N2C[C@H]([C@H](C)Oc3ccc(C#N)cn3)[C@@H](c3ccc(Cl)c(F)c3)C2)cn1 [Example 91, 6-{(S)-1-[(3R,4S)-4-(4-Chloro-3-fluoro-phenyl)-1-(2-methyl-pyrimidine-5-carbonyl)-pyrrolidin-3-yl]-ethoxy}-nicotinonitrile]"
11,1.1,"Cc1noc(-c2ccc(C(=O)N3C[C@H]([C@H](C)Oc4ccc(C#N)cn4)[C@@H](c4ccc(Cl)c(Cl)c4)C3)cc2)n1 (racemic) [Example 60, 6-((SR)-1-{(3RS,4SR)-4-(3,4-Dichloro-phenyl)-1-[4-(3-methyl-[1,2,4]oxadiazol-5-yl)-benzoyl]-pyrrolidin-3-yl}-ethoxy)-nicotinonitrile]"

# System: not given
# Assay: not given
# Conditions: phase II trial; negative symptoms (depression, anhedonia, social isolation, memory and attention deficits); cited from earlier work
row,Compound,activity in the treatment of negative symptoms of schizophrenia
1,"CC(=O)N(C)C1(c2ccccc2)CCN(CCC[C@]2(c3ccc(Cl)c(Cl)c3)CCCN(C(=O)c3ccccc3)C2)CC1 [SR 142,801, Osanetant]",inactive

# Same assay, conditions: phase II trial; positive symptoms (altered behaviour, delusion, hallucinations, extreme emotions, excited motor activity, incoherent speech); cited from earlier work
row,Compound,activity on positive symptoms of schizophrenia
1,"CC(=O)N(C)C1(c2ccccc2)CCN(CCC[C@]2(c3ccc(Cl)c(Cl)c3)CCCN(C(=O)c3ccccc3)C2)CC1 [SR 142,801, Osanetant]",active
